This note sets out measurements from patent publication US5543517A, “Substituted bicyclic phosphoramides and derivatives thereof” (The DuPont Merck Pharmaceutical Company, priority 1994, dated 1996).

One assay concerns HIV-1 (RF). As to the kind of experiment: HIV RNA assay (microplate based compound evaluation in HIV-1 infected MT-2 cells). It counts as cell-based. Conditions: Human immunodeficiency virus 1, MT2, 72 h; HIV RNA assay, HIV-1 (RF) infected MT-2 cells, 3 days, 37° C.; read-out: IC90. The protocol: DNA Plasmids and In Vitro RNA Transcripts
Plasmid pDAB 72 containing both gag and pol sequences of BH10 (bp 113-1816) cloned into PTZ 19R was prepared according to Erickson-Viitanen et al. AIDS Research and Human Retroviruses 1989, 5, 577. The plasmid was linearized with Bam HI prior to the generation of in vitro RNA transcripts using the Riboprobe Gemini system II kit (Promega) with T7 RNA polymerase. Synthesized RNA was purified by treatment with RNase free DNAse (Promega), phenol-chloroform extraction, and ethanol precipitation. RNA transcripts were dissolved in water, and stored at -70° C. The concentration of RNA was determined from the A260.
Biotinylated capture probes were purified by HPLC after synthesis on an Applied Biosystems (Foster City, Calif.) DNA synthesizer by addition of biotin to the 5' terminal end of the oligonucleotide, using the biotinphosphoramidite reagent of Cocuzza, Tet. Lett. 1989, 30, 6287. The gag biotinylated capture probe (5-biotin-[…] 3') was complementary to nucleotides 889-912 of HXB2 and the pol biotinylated capture probe (5'-biotin --[…] 3') was complementary to nucleotides 2374-2395 of HXB2. Alkaline phosphatase conjugated oligonucleotides used as reporter probes were prepared by Syngene (San Diego, Calif.). The pol reporter probe (5' […] 3') was complementary to nucleotides 2403-2425 of HXB2. The gag reporter probe (5' […] 3') was complementary to nucleotides 950-973 of HXB2. All nucleotide positions are those of the GenBank Genetic Sequence Data Bank as accessed through the Genetics Computer Group Sequence Analysis Software Package (Devereau Nucleic Acids Research 1984, 12, 387). The reporter probes were prepared as 0.5 μM stocks in 2×SSC(0.3M NaCl, 0.03M sodium citrate), 0.05M Tris pH 8.8, 1 mg/mL BSA. The biotinylated capture probes were prepared as 100 μM stocks in water.
Streptavidin Coated Plates
Nunc-immunomodule microtiter plate strips were coated by addition of 200 μL of streptavidin (30 μg/mL, Scripps, La Jolla, Calif.) in freshly prepared 10 mM sodium carbonate (pH 9.6). Plates were incubated overnight at 4° C. Streptavidin solution was aspirated from the wells and a blocking buffer composed of phosphate buffered saline (PBS), 20 mg/mL bovine serum albumin (crystalline, nuclease and protease free, Calbiochem) and 100 mg/mL lactose (Sigma) was added to the plates for 3 hrs at room temperature. Blocking buffer was removed from the wells, which were allowed to dry overnight at room temperature and subsequently stored at 4° C. in zip lock bags with desiccant. For the majority of the compound evaluation experiments, streptavidin coated plates were obtained from Du Pont Biotechnology Systems (Boston, Mass.).
MT-2, CEM, and H9 cells were maintained in RPMI 1640 supplemented with 5% fetal calf serum (FCS), 2 mM L-glutamine and 50 μg/mL gentamycin, all from Gibco. Laboratory strains of HIV-1 (RF, MN and IIIB) were propagated in H9 cells in the same medium. Virus stocks were prepared approximately 1 month after acute infection of H9 cells by clarification of the tissue culture medium and storage of aliquots at -70° C. Infectious titers of HIV-1 (RF) stocks were 1-3×10^7 PFU (plaque forming units)/mL as measured by plaque assay on MT-2 cells (see below). Each aliquot of virus stock used for infection was thawed only once. In some cases, infected H9 cells were shifted to Dulbecco's modified Eagle's medium 3-10 days before collection of virus in order to generate virus stocks in medium with low biotin content. Clinical isolates of HIV that had been passaged once in MT-2 cells were used to infect fresh MT-2 cells in RPMI medium. Three days after infection, cells were pelleted, resuspended and culture continued in Dulbecco's modified Eagle's medium as above. Virus stocks of clinical isolates were prepared 10-15 days after infection when cytopathic effects were apparent in the culture. […]

The subject of another assay is HIV (3B) or HIV (RF). As to the kind of experiment: HIV yield reduction cell assay (plaque assay, MT-2 cells). Conditions: Human immunodeficiency virus 1, MT2, 72 h, 3 days. It counts as cell-based. The protocol:
HIV YIELD REDUCTION CELL ASSAY
The following procedure is additionally described in Smallheer et al. Antiviral Chemistry and Chemotherapy 1993, 4(1), 27.
MT-2, a human T-cell line, was cultured in RPMI medium supplemented with 5% (v/v) heat inactivated fetal calf serum (FCS), 2 mM L-glutamine and 50 μg/mL gentamycin (later two compounds available from Gibco) Human immunodeficiency virus strains, HIV (3B) and HIV (RF) were propagated in H-9 cells in RPMI with 5% FCS. Poly-L-lysine (Sigma) coated cell culture plates were prepared according to the method of Harada et al. Science 1985, 229 563. MTT, (3-(4,5-dimethyl-thiazol-2-yl)-2,5-diphenyltetrazolium bromide), was obtained from Sigma.
Method: Test compounds were dissolved in dimethylsulfoxide to 5 mg/mL and serially diluted into RPMI medium to ten times the desired final concentration. […]
The virus titers of the progeny virus produced in the presence or absence of test compounds were determined by plaque assay. […] Clear plaques on a purple background were counted and the number of plaque forming units of virus was calculated for each sample. The antiviral activity of test compounds was determined by the percent reduction in the virus titer with respect to virus grown in the absence of inhibitor. The IC90 values in TABLE 2 were determined using the assay conditions described above under HIV Yield Reduction Assay. […]

The structures appear in SMILES notation. A value given as a limit tells only on which side of the number the result lay.

What is called IC90 is the point of the concentration-response curve where the effect stands at 90%. As for `O=P12O[C@H]([C@@H](O)[C@@H](Cc3ccccc3)N1Cc1ccc(CO)cc1)[C@@H](Cc1ccccc1)N2Cc1ccc(CO)cc1` [Example 5C, (3-endo,4-endo,6-exo)-2,7-Bis(4-(hydroxymethyl)phenylmethyl)-3,6-bis(phenylmethyl)-8-oxa-2,7-diaza-1-phosphabicyclo[3.2.1]octan-4-ol 1-oxide], the IC90 with HIV-1 (RF) and with HIV (3B) or HIV (RF) was less than 10 µg/mL each time.
